The subject of the assay is lithium-pilocarpine model of temporal lobe epilepsy. The assay is described as follows: Neuroprotection activity using the lithium-pilocarpine model of temporal lobe epilepsy. It counts as in vivo, Male Sprague-Dawley rats. The conditions noted are these: rats after Li-pilocarpine. The procedure:
Male Sprague-Dawley rats (purchased from Orient Bio Inc. Korea) of body weight 175-230 g were used for these studies and housed 4 rats per cage for 4-5 days. On the day prior to status epilepsy (SE), rats received 127 mg/kg lithium chloride (Sigma, St. Louis, Mo., U.S.A.) intraperitoneal (i.p.). Approximately 18-20 h following this treatment, rats were given an i.p. injection of 43 mg/kg pilocarpine (Sigma). An i.p. injection of 2 mg/kg methyl-scopolamine (Sigma) was administered 30 min prior to pilocarpine to block the effects of the muscarinic agonist on peripheral cholinergic receptors. The effects of various dose compound (or example) 1, 65 and 67, dissolved in 30% Poly Ethylene Glycol 400 (Acros Organics, Geel, Belgium) were studied at 30 min after SE onset. The drugs were administered i.p. in a volume of 2 ul/g body weight. Pharmacological effects of all the test materials were evaluated to compared test groups (n=8) with a control group (n=8). Control group was administrated vehicle, only. All animals were kept for 2 weeks to look at the mortality and quantification of cell densities was performed 14 days after SE in test groups and control rats not subjected to SE. The animals were deeply anesthetized by injection lumpun plus zoletile, 7:3 (v/v) and perfused transcardially with 150 ml of ice-cold 0.01 M phosphate buffer followed by 250 ml of freshly prepared ice-cold 4% paraformaldehyde (PFA) in 0.1 M phosphate buffer, pH 7.4. The brains were removed and postfixed in the same fixative for an additional 22˜24 h at 4° C., and then transferred to 30% sucrose for cryoprotection until the samples were precipitated. Brains were frozen in methyl butane with dry ice and stored at −80° C. Serial coronal […] slices were cut in a cryostat (Microtome HM 1850, Leica, Germany) and put the sections onto the slides, and air-dried before thionine staining. Every fifth section was selected for morphometric analysis.
Neuronal density quantification was performed automatically with the MCID Elite software (Interfocus Ltd, Linton, UK) by counting the number of neurons present in a defined area of the structure of interest (dorsal hippocampus—CA1, CA3, DZ) and carried out with a microscopic enlargement of 200- or 400-fold. Countings were performed twice on each side in each region by a single observer unaware of animal's treatment and averaged. In each structure, the mean and minimal surface area of the neurons were determined in order to count only neurons and exclude glial cells with smaller cell bodies. (Ref., Jennifer François, Katuschia Germe, Arielle Ferrandon, Estelle Koning, Astrid Nehlig (2011) Carisbamate has powerful disease-modifying effects in the lithium-pilocarpine model of temporal lobe epilepsy, Neuropharmacology 61: 313˜328)
Data were expressed as mean±sem. Statistical analysis of difference between groups was evaluated by ANOVA followed by Dunnett's test or Bonferroni test as a post hoc analysis using Statistica (Statsoft, Inc., USA). Difference was considered statistically significant when the p value was less than 0.05.

For `C[C@H](OC(N)=O)[C@@H](O)c1ccccc1I` [Compound 65, 1-(2-iodophenyl)-(S)-1-hydroxypropyl-(S)-2-carbamate], the survival rate reads like this: (5 mg/kg i.p. 30 min after SE onset, kept 2 weeks (FIG. 4)) 50%; (25 mg/kg i.p. 30 min after SE onset, kept 2 weeks (FIG. 4)) 62.5%; (50 mg/kg i.p. 30 min after SE onset, kept 2 weeks (FIG. 4)) 100%.

In the case of `CC[C@H](OC(N)=O)[C@@H](O)c1ccccc1I` [Compound 67, 1-(2-iodophenyl)-(S)-1-hydroxybutyl-(S)-2-carbamate], the survival rate (30 mg/kg i.p. 30 min after SE onset, kept 2 weeks (FIG. 5)) came out at 25% and the survival rate (120 mg/kg i.p. 30 min after SE onset, kept 2 weeks (FIG. 5)) is reported as 100%.

For the origin of these results see patent US10525030B2 (priority 2013, dated 2020).
